Test results from US9938261B2, “Heterocyclic compounds and methods of use thereof” (AMBIT BIOSCIENCES CORPORATION, priority 2011, dated 2018).
Read-outs that look alike come from different tables or passages of the source.

Legend:
CSF1R [1] = target: T1, CSF1R (Homo sapiens, UniProt P07333); assay: HEK293 CSF1R phosphorylation MSD assay; assay type: cell-based; parameters: expressed in transfected cells; host or cells: HEK293; conditions: read-out: HEK293 pCSF1R M-CSF MSD:IC50
Procedure, shortened: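 Ligand-induced CSF1R autophosphorylation was measured by MSD sandwich assay: CSF1R-FKBP from lysates captured via FK506, anti-phosphotyrosine readout. Cells were exposed to compound for 2 h (9-point, half-log, 0.5% DMSO) before 5 min 50 ng/mL M-CSF. Reported IC50 is the mean of duplicate-plate IC50s relative to DMSO control.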

PDGFRβ = target: T2, PDGFRβ (Homo sapiens, UniProt P09619); assay: Competition binding assay, PDGFRβ Kd
T2 construct: made in house
Procedure, shortened: (§1)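 Read-out is quantitative PCR of kinase recovered from affinity beads after competition with test compound. Binding reached equilibrium over 1 hour at room temperature; Kd values come from eleven-point threefold serial dilutions.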

[2] = target: kinase panel containing either 386 or 392 distinct kinases; assay: Kinase selectivity score S10 from competition binding panel
Procedure, shortened: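 S10 is the number of kinases with percent-of-control under 10, divided by all distinct wild-type kinases tested, from a single 10 μM concentration. Binding measured by qPCR of kinase recovered from ligand-coated beads after 1 h equilibrium at room temperature; kinases were phage fusions or DNA-tagged HEK-293 products.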

KIT = target: T3, KIT (Homo sapiens, UniProt P10721); assay: Competition binding assay, KIT Kd
T3 construct: made in house
Procedure, shortened: as §1

CSF1R [3] = target: T1, CSF1R; assay: Competition binding assay, CSF1R Kd; parameters: made in house
Procedure, shortened: as §1

[4] = 2 h compound, human M-CSF 50 ng/mL for 5 min
[5] = compounds at 10 μM, 386 or 392 distinct kinases
[6] = HEK293 cells, M-CSF stimulated CSF1R phosphorylation, MSD
[7] = 10 μM, panel of 386 or 392 distinct kinases

T1 sequence (P07333 20-972): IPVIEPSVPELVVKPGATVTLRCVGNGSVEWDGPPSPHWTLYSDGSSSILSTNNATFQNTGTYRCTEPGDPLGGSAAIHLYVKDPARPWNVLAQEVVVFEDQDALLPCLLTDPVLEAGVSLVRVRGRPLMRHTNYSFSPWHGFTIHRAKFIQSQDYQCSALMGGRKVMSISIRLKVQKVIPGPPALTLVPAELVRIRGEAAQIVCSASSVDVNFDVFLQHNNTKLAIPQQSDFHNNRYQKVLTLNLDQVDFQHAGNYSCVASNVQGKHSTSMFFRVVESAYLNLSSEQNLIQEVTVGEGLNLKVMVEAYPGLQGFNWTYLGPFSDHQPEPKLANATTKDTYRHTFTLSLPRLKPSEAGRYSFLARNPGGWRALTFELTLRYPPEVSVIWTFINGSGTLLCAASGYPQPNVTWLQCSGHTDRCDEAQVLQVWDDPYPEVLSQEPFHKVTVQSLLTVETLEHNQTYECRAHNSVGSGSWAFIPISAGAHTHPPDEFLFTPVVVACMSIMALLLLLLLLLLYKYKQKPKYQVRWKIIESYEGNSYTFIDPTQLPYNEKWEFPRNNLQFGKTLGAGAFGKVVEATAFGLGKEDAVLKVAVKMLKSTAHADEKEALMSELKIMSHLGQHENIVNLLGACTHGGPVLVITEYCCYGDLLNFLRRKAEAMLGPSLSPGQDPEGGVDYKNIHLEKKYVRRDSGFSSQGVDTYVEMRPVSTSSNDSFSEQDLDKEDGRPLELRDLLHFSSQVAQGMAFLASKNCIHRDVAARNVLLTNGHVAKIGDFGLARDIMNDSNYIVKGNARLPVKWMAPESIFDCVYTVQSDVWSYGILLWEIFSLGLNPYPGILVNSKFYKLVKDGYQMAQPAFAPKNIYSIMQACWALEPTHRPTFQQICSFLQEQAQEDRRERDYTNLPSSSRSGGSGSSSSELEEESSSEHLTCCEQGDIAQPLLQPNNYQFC
T2 sequence (P09619 33-1106): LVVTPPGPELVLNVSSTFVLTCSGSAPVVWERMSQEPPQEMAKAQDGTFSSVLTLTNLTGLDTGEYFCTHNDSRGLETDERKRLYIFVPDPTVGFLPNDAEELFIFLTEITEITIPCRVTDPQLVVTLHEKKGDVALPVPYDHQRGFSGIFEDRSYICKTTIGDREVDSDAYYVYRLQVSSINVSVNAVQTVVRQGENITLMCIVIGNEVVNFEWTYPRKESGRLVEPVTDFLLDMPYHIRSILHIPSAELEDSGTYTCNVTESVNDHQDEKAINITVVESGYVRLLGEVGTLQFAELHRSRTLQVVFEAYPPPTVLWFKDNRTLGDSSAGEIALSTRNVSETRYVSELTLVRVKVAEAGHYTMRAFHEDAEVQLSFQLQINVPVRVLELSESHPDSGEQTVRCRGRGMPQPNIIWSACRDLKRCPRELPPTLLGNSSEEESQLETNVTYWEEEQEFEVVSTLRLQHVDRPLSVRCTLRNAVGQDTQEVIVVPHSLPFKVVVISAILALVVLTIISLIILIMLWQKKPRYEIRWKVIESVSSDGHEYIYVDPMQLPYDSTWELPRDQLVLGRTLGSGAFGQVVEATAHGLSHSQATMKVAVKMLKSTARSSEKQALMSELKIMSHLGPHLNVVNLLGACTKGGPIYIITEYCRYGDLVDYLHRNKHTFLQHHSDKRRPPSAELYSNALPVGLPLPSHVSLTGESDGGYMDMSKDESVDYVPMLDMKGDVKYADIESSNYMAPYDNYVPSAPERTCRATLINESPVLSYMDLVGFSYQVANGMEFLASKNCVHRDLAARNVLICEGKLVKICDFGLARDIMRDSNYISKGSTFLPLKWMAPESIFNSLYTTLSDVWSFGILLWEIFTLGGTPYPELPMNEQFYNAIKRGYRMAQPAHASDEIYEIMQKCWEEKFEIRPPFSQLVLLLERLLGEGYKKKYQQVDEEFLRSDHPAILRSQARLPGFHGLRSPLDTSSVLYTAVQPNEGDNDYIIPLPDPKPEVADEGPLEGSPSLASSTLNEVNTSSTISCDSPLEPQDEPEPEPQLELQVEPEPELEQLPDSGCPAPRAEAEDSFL
T3 sequence (P10721 26-976): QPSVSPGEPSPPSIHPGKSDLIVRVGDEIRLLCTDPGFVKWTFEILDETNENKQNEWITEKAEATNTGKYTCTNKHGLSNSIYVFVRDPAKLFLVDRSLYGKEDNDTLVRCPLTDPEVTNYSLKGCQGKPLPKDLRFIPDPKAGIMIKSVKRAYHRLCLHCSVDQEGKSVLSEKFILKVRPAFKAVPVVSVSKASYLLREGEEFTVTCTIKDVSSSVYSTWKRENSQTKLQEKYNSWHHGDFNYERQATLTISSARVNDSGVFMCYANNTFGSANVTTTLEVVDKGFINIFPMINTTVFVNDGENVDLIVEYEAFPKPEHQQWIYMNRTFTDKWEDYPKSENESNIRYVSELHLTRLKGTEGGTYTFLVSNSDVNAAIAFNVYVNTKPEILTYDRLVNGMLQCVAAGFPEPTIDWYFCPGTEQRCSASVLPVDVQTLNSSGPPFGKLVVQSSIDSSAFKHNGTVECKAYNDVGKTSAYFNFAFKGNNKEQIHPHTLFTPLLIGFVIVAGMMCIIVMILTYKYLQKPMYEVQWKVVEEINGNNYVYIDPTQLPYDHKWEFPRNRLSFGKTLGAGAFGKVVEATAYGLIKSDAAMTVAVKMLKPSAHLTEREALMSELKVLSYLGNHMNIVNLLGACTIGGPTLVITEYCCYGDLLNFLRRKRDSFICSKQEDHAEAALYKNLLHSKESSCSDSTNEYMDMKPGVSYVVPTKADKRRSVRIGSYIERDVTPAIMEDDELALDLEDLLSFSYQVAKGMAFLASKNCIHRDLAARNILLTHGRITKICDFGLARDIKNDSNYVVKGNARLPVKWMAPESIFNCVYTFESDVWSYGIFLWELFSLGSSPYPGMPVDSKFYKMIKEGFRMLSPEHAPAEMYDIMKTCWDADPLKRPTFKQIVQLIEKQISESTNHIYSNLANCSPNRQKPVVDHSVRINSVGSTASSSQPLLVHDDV

Row | Compound | IC50 (CSF1R [1]; [4]) | Kd (PDGFRβ) | Kinase specificity S(10) [2, 5] | Kd (KIT) | Kd (CSF1R [3]) | IC50 (CSF1R [1]; [6]) | Kd (PDGFRβ; competition binding) | Kinase specificity S(10) [2, 7] | Kd (KIT; competition binding) | Kd (CSF1R [3]; competition binding)
1 | CC(=O)c1ccn2c(Cc3ccc4nc(N[C@@H]5CCCC[C@H]5O)sc4c3)cnc2c1 [Example 200, 1-(3-((2-(((1R,2R)-2-hydroxycyclohexyl)amino)benzo[d]thiazol-6-yl)methyl)imidazo[1,2-a]pyridin-7-yl)ethanone] |  |  |  |  |  | 0.05 to 0.2 µM | 0.05 to 0.5 µM | A (A≤0.01) | 0.5 to 2 µM | 0.005 to 0.02 µM
2 | O[C@@H]1CCCC[C@H]1Nc1nc2ccc(Cn3cnc4cc(C5=CCOCC5)cc(F)c43)cc2s1 [Example 208, (1R,2R)-2-((6-((5-(3,6-dihydro-2H-pyran-4-yl)-7-fluoro-1H-benzo[d]imidazol-1-yl)methyl)benzo[d]thiazol-2-yl)amino)cyclohexanol] |  |  |  |  |  | 0.05 to 0.2 µM | ≤ 0.05 µM | B (0.01<B≤0.02) | ≤ 0.1 µM | ≤ 0.005 µM
3 | O[C@@H]1CCCC[C@H]1Nc1nc2ccc(Cc3cnc4ccccn34)cc2s1 [Example 38, (1R,2R)-2-((6-(imidazo[1,2-a]pyridin-3-ylmethyl)benzo[d]thiazol-2-yl)amino)cyclohexanol] | 0.2 to 0.5 µM | > 2 µM | A (A≤0.01) | 0.5 to 2 µM | 0.02 to 0.05 µM |  |  |  |  | 
4 | CS(=O)(=O)O.O[C@@H]1CCCC[C@H]1Nc1nc2ccc(Cn3cnc4cccnc43)cc2s1 [Example 3, (1R,2R)-2-((6-((3H-imidazo[4,5-b]pyridin-3-yl)methyl)benzo[d]thiazol-2-yl)amino)cyclohexanol methanesulfonic acid] | 0.05 to 0.2 µM | 0.05 to 0.5 µM | B (0.01<B≤0.02) | 0.1 to 0.5 µM | ≤ 0.005 µM |  |  |  |  | 
5 | O[C@@H]1CCCC[C@H]1Nc1nc2ccc(Cc3cnc4cc(-n5ccnn5)ccn34)cc2s1 [Example 218, (1R,2R)-2-((6-((7-(1H-1,2,3-triazol-1-yl)imidazo[1,2-a]pyridin-3-yl)methyl)benzo[d]thiazol-2-yl)amino)cyclohexanol] |  |  |  |  |  | ≤ 0.05 µM | 0.05 to 0.5 µM | A (A≤0.01) | 0.5 to 2 µM | 0.005 to 0.02 µM
6 | O[C@@H]1CCCC[C@H]1Nc1nc2ccc(Cc3cnc4[nH]c5ccccc5n34)cc2s1 [Example 205, (1R,2R)-2-((6-((9H-benzo[d]imidazo[1,2-a]imidazol-3-yl)methyl)benzo[d]thiazol-2-yl)amino)cyclohexanol] |  |  |  |  |  | > 0.5 µM | 0.05 to 0.5 µM | B (0.01<B≤0.02) | 0.5 to 2 µM | 0.005 to 0.02 µM
7 | either (1R,2R)-2-((6-((3H-imidazo[4,5-b]pyridin-3-yl)methyl)benzo[d]thiazol-2-yl)amino)-1-methylcyclohexanol or (1S,2R)-2-((6-((3H-imidazo[4,5-b]pyridin-3-yl)methyl)benzo[d]thiazol-2-yl)amino)-1-methylcyclohexanol [Example 60] | 0.05 to 0.2 µM | ≤ 0.05 µM | B (0.01<B≤0.02) | 0.1 to 0.5 µM | 0.005 to 0.02 µM |  |  |  |  | 
8 | either (1S,2R)-2-((6-((3H-imidazo[4,5-b]pyridin-3-yl)methyl)benzo[d]thiazol-2-yl)amino)-1-methylcyclohexanol or (1R,2R)-2-((6-((3H-imidazo[4,5-b]pyridin-3-yl)methyl)benzo[d]thiazol-2-yl)amino)-1-methylcyclohexanol [Example 59] | 0.05 to 0.2 µM | 0.05 to 0.5 µM | C (C>0.02) | 0.1 to 0.5 µM | 0.005 to 0.02 µM |  |  |  |  | 

Further lines, results first:

Row | IC50 (CSF1R [1]; [4]) | Kd (PDGFRβ) | Kinase specificity S(10) [2, 5] | Kd (KIT) | Kd (CSF1R [3]) | IC50 (CSF1R [1]; [6]) | Kd (PDGFRβ; competition binding) | Kinase specificity S(10) [2, 7] | Kd (KIT; competition binding) | Kd (CSF1R [3]; competition binding) | Compound
9 | ≤ 0.05 µM | ≤ 0.05 µM | B (0.01<B≤0.02) | ≤ 0.1 µM | ≤ 0.005 µM |  |  |  |  |  | N#Cc1ccc2ncn(Cc3ccc4nc(N[C@@H]5CCCC[C@H]5O)sc4c3)c2n1 [Example 87, 3-((2-(((1R,2R)-2-hydroxycyclohexyl)amino)benzo[d]thiazol-6-yl)methyl)-3H-imidazo[4,5-b]pyridine-5-carbonitrile]
10 | 0.05 to 0.2 µM | 0.05 to 0.5 µM | A (A≤0.01) | 0.1 to 0.5 µM | 0.005 to 0.02 µM |  |  |  |  |  | O[C@@H]1CCCC[C@H]1Nc1nc2ccc(Cn3cnc4cc(Br)ccc43)cc2s1 [Example 100, (1R,2R)-2-((6-((5-bromo-1H-benzo[d]imidazol-1-yl)methyl)benzo[d]thiazol-2-yl)amino)cyclohexanol]
11 |  |  |  |  |  | 0.2 to 0.5 µM | ≤ 0.05 µM | B (0.01<B≤0.02) | 0.1 to 0.5 µM | ≤ 0.005 µM | Fc1cnc2c(c1)ncn2Cc1ccc2nc(N[C@@H]3CCCC[C@H]3Cl)sc2c1 [Example 198, N-((1R,2R)-2-chlorocyclohexyl)-6-((6-fluoro-3H-imidazo[4,5-b]pyridin-3-yl)methyl)benzo[d]thiazol-2-amine]
12 | 0.05 to 0.2 µM | 0.05 to 0.5 µM | B (0.01<B≤0.02) | 0.1 to 0.5 µM | 0.005 to 0.02 µM |  |  |  |  |  | N#Cc1cnc2c(c1)ncn2Cc1ccc2nc(N[C@@H]3CCCC[C@H]3O)sc2c1 [Example 43, 3-((2-(((1R,2R)-2-hydroxycyclohexyl)amino)benzo[d]thiazol-6-yl)methyl)-3H-imidazo[4,5-b]pyridine-6-carbonitrile]
13 | 0.2 to 0.5 µM | 0.05 to 0.5 µM | A (A≤0.01) | 0.5 to 2 µM | 0.005 to 0.02 µM |  |  |  |  |  | O[C@@H]1CCCC[C@H]1Nc1nc2ccc(Cn3cnc4cc(CN5CCOCC5)cnc43)cc2s1 [Example 82, (1R,2R)-2-((6-((6-(morpholinomethyl)-3H-imidazo[4,5-b]pyridin-3-yl)methyl)benzo[d]thiazol-2-yl)amino)cyclohexanol]
14 |  |  |  |  |  | 0.05 to 0.2 µM | 0.05 to 0.5 µM | B (0.01<B≤0.02) | 0.1 to 0.5 µM | 0.005 to 0.02 µM | O[C@@H]1CCCC[C@H]1Nc1nc2ccc(Cn3cnc4ccc(Br)cc43)cc2s1 [Example 107, (1R,2R)-2-((6-((6-bromo-1H-benzo[d]imidazol-1-yl)methyl)benzo[d]thiazol-2-yl)amino)cyclohexanol]
15 | ≤ 0.05 µM | 0.05 to 0.5 µM | A (A≤0.01) | 0.1 to 0.5 µM | 0.005 to 0.02 µM |  |  |  |  |  | OCc1cnc2c(c1)ncn2Cc1ccc2nc(N[C@@H]3CCCC[C@H]3O)sc2c1 [Example 84, (1R,2R)-2-((6-((6-(hydroxymethyl)-3H-imidazo[4,5-b]pyridin-3-yl)methyl)benzo[d]thiazol-2-yl)amino)cyclohexanol]
16 |  |  |  |  |  | 0.05 to 0.2 µM | 0.05 to 0.5 µM | A (A≤0.01) | ≤ 0.1 µM | 0.005 to 0.02 µM | O[C@@H]1CCCC[C@H]1Nc1nc2ccc(Cn3cnc4cc(Br)cc(F)c43)cc2s1 [Example 203, (1R,2R)-2-((6-((5-bromo-7-fluoro-1H-benzo[d]imidazol-1-yl)methyl)benzo[d]thiazol-2-yl)amino)cyclohexanol]
17 | 0.05 to 0.2 µM | 0.5 to 2 µM | A (A≤0.01) | 0.1 to 0.5 µM | 0.005 to 0.02 µM |  |  |  |  |  | COc1cc2c(cc1Br)ncn2Cc1ccc2nc(N[C@@H]3CCCC[C@H]3O)sc2c1 [Example 41, (1R,2R)-2-((6-((5-bromo-6-methoxy-1H-benzo[d]imidazol-1-yl)methyl)benzo[d]thiazol-2-yl)amino)cyclohexanol]
18 | ≤ 0.05 µM | ≤ 0.05 µM | C (C>0.02) | ≤ 0.1 µM | 0.005 to 0.02 µM |  |  |  |  |  | CSCc1cnc2c(c1)ncn2Cc1ccc2nc(N[C@@H]3CCCC[C@H]3O)sc2c1 [Example 86, (1R,2R)-2-((6-((6-((methylthio)methyl)-3H-imidazo[4,5-b]pyridin-3-yl)methyl)benzo[d]thiazol-2-yl)amino)cyclohexanol]
19 | ≤ 0.05 µM | ≤ 0.05 µM | C (C>0.02) | ≤ 0.1 µM | 0.005 to 0.02 µM |  |  |  |  |  | O[C@@H]1CCCC[C@H]1Nc1nc2ccc(Cn3cnc4cc(Br)cnc43)cc2o1 [Example 61, (1R,2R)-2-((6-((6-bromo-3H-imidazo[4,5-b]pyridin-3-yl)methyl)benzo[d]oxazol-2-yl)amino)cyclohexanol]
20 | 0.2 to 0.5 µM | 0.5 to 2 µM | A (A≤0.01) | > 2 µM | > 0.05 µM |  |  |  |  |  | CC(=O)NCc1cnc2c(c1)ncn2Cc1ccc2nc(N[C@@H]3CCCC[C@H]3O)sc2c1 [Example 99, N-((3-((2-(((1R,2R)-2-hydroxycyclohexyl)amino)benzo[d]thiazol-6-yl)methyl)-3H-imidazo[4,5-b]pyridin-6-yl)methyl)acetamide]
21 | ≤ 0.05 µM | ≤ 0.05 µM | A (A≤0.01) | 0.1 to 0.5 µM | 0.005 to 0.02 µM |  |  |  |  |  | CC(=O)c1cnc2c(c1)ncn2Cc1ccc2nc(N[C@@H]3CCCC[C@H]3O)sc2c1 [Example 73, 1-(3-((2-(((1R,2R)-2-hydroxycyclohexyl)amino)benzo[d]thiazol-6-yl)methyl)-3H-imidazo[4,5-b]pyridin-6-yl)ethanone]
